Measurements: publication PMC7160673, “A Degenerate Peptide Library Approach to Reveal Sequence Determinants of Methyllysine-Driven Protein Interactions” (Frontiers in Cell and Developmental Biology, 2020)
Where no end group is shown, it is not given here. Peg = not defined here

Tests used:
Format in all cases: binding
53BP1 TTD = assay: Histone peptide microarray, 53BP1 TTD; details: 53BP1 TTD hits, average signal per peptide
Experimental: (§1) Peptide microarrays were fabricated using an Aushon 2470 microarrayer and used as described ([Cornett et al., 2017]) with the following modifications. Protein and antibody hybridization steps were performed in buffer containing 25 mM HEPES pH 7.5, 100 mM NaCl, 0.5% BSA (w/v), and 0.1% NP-40. Slides were washed 3 × 5 min in PBS supplemented with 0.1% Tween-20 between each hybridization step. Antibodies used were primary anti-GST (Sigma #7781, 1:2,000 dilution) and an AlexaFluor 647-labeled secondary antibody (Life Technologies A-21245, 1:5,000 dilution). […] Full lists of peptides queried by array analysis are in Supplementary Table S2.

[1] = system: Millipore #07-449, anti-H3K27me3; assay: Histone peptide microarray, Millipore 07-449; details: Millipore 07-449 (anti-H3K27me3) hits, average signal per peptide
Experimental: as §1

CST 9733 (anti-H3K27me3) = assay: Histone peptide microarray, CST 9733; details: histone peptide array signal normalized to the highest peptide average per subarray, hits; CST 9733 LOT:14 dilution 1:5,000
Experimental: as §1

[2] = system: Active Motif #39161, anti-H3K9me3; assay: Histone peptide microarray, Active Motif 39161; details: Active Motif 39161 (anti-H3K9me3) hits
Experimental: as §1

[3] = system: Abcam #ab8895, anti-H3K4me1; assay: Histone peptide microarray, Abcam ab8895; details: Abcam ab8895 (anti-H3K4me1) hits, average signal per peptide
Experimental: as §1

Substance | Avg Signal (53BP1 TTD) | Avg Signal [1] | Avg Signal (CST 9733 (anti-H3K27me3)) | Avg Signal [2] | Avg Signal [3]
ACitTK(Me3)QTARKSTGGKAPRKQL-K(Biot)-NH2 [H3.1Cit2K4me3] | 0.1746 | 0.01263 | 0.00216 | 0.009245 | –
ACitTKQTARKSTGGKAPRKQL-K(Biot)-NH2 [Peptide H3.1Cit2] | 0.1308 | – | 0.005497 | 0.002403 | 0.01656
AR(Me2a)TK(Me3)QTARK(Ac)pSTGGK(Ac)APRK(Ac)QL-K(Biot)-NH2 [H3.1R2me2aK4me3K9acS10pK14acK18ac] | 0.02248 | 0.0008355 | 0.001633 | 0.01104 | –
AR(Me2a)TK(Me3)QTARKSTGGKAPRKQL-K(Biot)-NH2 [H3.1R2me2aK4me3] | 0.09687 | 0.02156 | 0.001321 | 0.01254 | –
AR(Me2s)TK(Me3)QTARK(Ac)STGGK(Ac)APRK(Ac)QL-K(Biot)-NH2 [H3.1R2me2sK4me3K9acK14acK18ac] | 0.134 | 0.02279 | 0.0007823 | 0.02558 | –
AR(Me2s)TK(Me3)QTARKSTGGKAPRKQL-K(Biot)-NH2 [H3.1R2me2sK4me3] | 0.1898 | 0.0135 | 0.00218 | 0.01035 | –
AR(Me)TK(Me3)QTARKSTGGKAPRKQL-K(Biot)-NH2 [H3.1R2me1K4me3] | 0.08379 | 0.07195 | 0.002343 | – | 0.01284
ARTK(Ac)QTARK(Ac)STGGK(Ac)APRK(Ac)QL-K(Biot)-NH2 [H3.1K4acK9acK14acK18ac] | 0.1399 | – | 0.0003418 | 0.05366 | –
ARTK(Me3)QTARK(Ac)STGGK(Ac)APRK(Ac)QL-K(Biot)-NH2 [H3.1K4me3K9acK14acK18ac] | 0.09733 | 0.03443 | 0.009625 | 0.004819 | –
ARTK(Me3)QTARK(Ac)STGGK(Ac)APRKQL-K(Biot)-NH2 [H3.1K4me3K9acK14ac] | 0.06229 | 0.05366 | 0.005042 | 0.01712 | –
ARTK(Me3)QTARK(Ac)STGGKAPRK(Ac)QL-K(Biot)-NH2 [H3.1K4me3K9acK18ac] | 0.0915 | 0.05409 | 0.009868 | 0.01916 | –
ARTK(Me3)QTARK(Ac)STGGKAPRKQL-K(Biot)-NH2 [H3.1K4me3K9ac] | 0.2378 | 0.05697 | 0.008895 | 0.02897 | –
ARTK(Me3)QTARK(Ac)pSTGGKAPRKQL-K(Biot)-NH2 [H3.1K4me3K9acS10p] | 0.1299 | 0.007736 | 0.004944 | 0.01343 | –
ARTK(Me3)QTARKSTGGK(Ac)APRK(Ac)QL-K(Biot)-NH2 [H3.1K4me3K14acK18ac] | 0.09432 | 0.01453 | 0.006975 | 0.0136 | –
ARTK(Me3)QTARKpSTGGKAPRKQL-K(Biot)-NH2 [H3.1K4me3S10p] | 0.00608 | 0.003491 | 0.002306 | 0.0006195 | –
ARTK(Me3)QpTARK(Ac)STGGK(Ac)APRK(Ac)QL-K(Biot)-NH2 [H3.1K4me3T6pK9acK14acK18ac] | 0.03157 | 0.0001463 | 0.004429 | 0.005164 | –
ARTK(Me3)QpTARKSTGGKAPRKQL-K(Biot)-NH2 [Peptide H3.1K4me3T6p] | 0.1846 | 0.009429 | 0.001818 | 0.02043 | –
ARTKQTAR(Me)KSTGGKAPRKQL-Peg-Biot (chain 2 KSTGGKAPRKQL-{Peg-Biot}; not fully specified; reading uncertain) [Peptide H3.1R8me1] | – | – | 0.01735 | – | 0.1046
ARTKQTAR-NleSTGGKAPRKQL-Peg-Biot [Peptide H3.1K9-Nle] | – | 0.001582 | 0.0002703 | – | 0.1441
ARTKQpTAR(Me2a)K(Me3)STGGKAPRKQL-K(Biot)-NH2 [H3.1T6pR8me2aK9me3] | – | 0.006631 | 0.008944 | 0.6906 | –
ARTKQpTARK(Me3)STGGKAPRKQL-K(Biot)-NH2 [Peptide H3.1T6pK9me3] | 0.226 | 0.02132 | 0.01471 | 0.3154 | –
Ac-APRKQLATK(Ac)AARKSAPSTGG-Peg-Biot [Peptide H3.3K23ac] | – | – | 0.0001716 | 0.006441 | –
Ac-APRKQLATKAAR(Me2a)KSAPSTGG-Peg-Biot [Peptide H3.3R26me2a] | – | 0.001966 | 0.0004634 | 0.01154 | –
